For data set [1], the system named is 4-cholesten-3-one dehydrogenase B. The experiment in a line: 4-cholesten-3-one dehydrogenase B titer: coprostan-3-one produced, TLC/FID. It is filed as biochemical, Eubacterium sp. CP 1. The following applies: for relative activity (enzyme activity without adding inhibitor is 100): 1 mM inhibitor, 30 minutes, pH 7.5, 37° C.; for relative activity in comparison with the case of no addition: 1 mM metal salt. The procedure: (§1) An enzyme solution was allowed to stand still at 37° C. for 15 minutes using various pH buffer solutions, and remaining activity was measured, and pH range in which activity was not less than 50% of the maximum active value was regarded as a stable pH range. (The following is the same.)
With 0.2 ml of 3 mM 4-cholesten-3-one micelle solution containing 0.33% Triton X-100 is mixed 0.3 ml of a 20 mM Tris-hydrochloric acid buffer solution (pH 7.5) containing 1.0% Triton X-100and 1 mM DTT, and 0.1 ml of a10 mM NADH solution, the resulted mixture is added 0.05 ml of an enzyme solution, reacted for 30 minutes at 37° C., and then added 0.1 ml of chloroform to extract sterol and to terminate the reaction.
(§2) Then, the quantity of coprostan-3-one produced in the reaction solution is determined using TLC/FID iatroscan. The quantity of coprostan-3-one produced in the reaction solution is determined likewise using an inactivated enzyme which has been previously heated as a control. The enzyme activity which produces 1 μmol of coprostan-3-one per one minute is regarded as 1 unit.

The test system of data set [2] is cholesterol in meat. The experiment in a line: enzymatic conversion to coprostanol in aging period of meat (Embodiment 10). The following applies: minced beef, each enzyme 0.2 unit/g meat, PL-D 2 unit/g meat, 0.5 ml 20% nicotinamide, aged 7 days. It counts as biochemical. The procedure: 10 g of beef 6 hours after slaughtering was made into minced meat, and to this was added the cholesterol dehydrogenase obtained in Embodiment 5 (0.2 unit/g meat), the 4-cholesten-3-one dehydrogenase obtained in Embodiment 6 (0.2 unit/g meat) and the coprostan-3-one dehydrogenase obtained in Embodiment 7 (0.2 unit/g meat) and mixed, and the mixture was aged at 5° C. for 7 days. Also, mixtures to which 0.5 ml of a 20% aqueous nicotinamide solution had been further added, meat to which phospholipase (2 unit/g meat) had been further added and meat to which both of them had been further added at the mixing were aged at […] for 7 days, respectively.
After aging, the meat was freeze-dried and lipid components were extracted with a 25 ml extraction solvent (chloroform:methanol=2:1). Regarding the resulting extracted sample, the amount of converted sterol products was determined using gas chromatography (manufactured by GL Science, TC-1701, column φ0.25 […]×30 m). In Table 5, PL-D represents phospholipase D and COP represents coprostanol, respectively.

In data set [3] the test system is cholesterol dehydrogenase A. The experiment in a line: cholesterol dehydrogenase A titer: 4-cholesten-3-one produced from cholesterol micelle, TLC/FID. It counts as biochemical, Eubacterium sp. CP 2. The following applies: for relative activity (enzyme activity without adding inhibitor defined as 100): 1 mM inhibitor, 30 minutes, pH 7.5, 37° C.; for relative activity as substrate (activity of cholesterol is 100): substrate specificity; for relative activity in comparison with the case of no addition: 1 mM metal salt. The procedure:
as §1
With 0.2 ml of 3 mM cholesterol micelle solution containing 0.33% Triton X-100 is mixed 0.3 ml of a 20 mM piperazine-N,N′-bis-(2-ethane […]) (hereinafter, referred to as “PIPES”) buffer solution (pH 7.5) containing 0.5% Triton X-100 and 1 mM dithiothreitol (hereinafter, referred to as “DTT”), and 0.1 ml of a 10 mM […] solution, the resulted mixture is added 0.05 ml of an enzyme solution, reacted for 30 minutes at 37° C., and then added 0.1 ml of chloroform to extract sterol and to terminate the reaction.
Then, the quantity of 4-cholesten-3-one produced in the reaction solution is determined using TLC/FID iatroscan. The quantity of 4-cholesten-3-one produced in the reaction solution is determined likewise using an inactivated enzyme which has been previously heated as a control. The enzyme activity which produces 1 μmol of 4-cholesten-3-one per one minute is regarded as 1 unit.

Data set [4] concerns 4-cholesten-3-one dehydrogenase A. Briefly: 4-cholesten-3-one dehydrogenase A titer: coprostan-3-one produced, TLC/FID. It counts as biochemical, Eubacterium sp. CP 2. The following applies: for relative activity (enzyme activity without adding inhibitor defined as 100): 1 mM inhibitor, 30 minutes, pH 7.5, 37° C.; for relative activity in comparison to the case of no addition: 1 mM metal salt; for relative activity as substrate (activity of 4-cholesten-3-one defined as 100): substrate specificity. The procedure: as §1
With 0.2 ml of 3 mM 4-cholesten-3-one micelle solution containing 0.33% Triton X-100 is mixed 0.3 ml of a 20 mM PIPES buffer solution (pH 7.5) containing 0.5% Triton X-100 and 1 mM DTT, and 0.1 ml of a 10 mM NADH solution, the resulted mixture is added 0.05 ml of an enzyme solution, and reacted for 30 minutes at 37° C., and then added 0.1 ml of chloroform to extract sterol and to terminate the reaction.
as §2

Data set [5] deals with coprostan-3-one dehydrogenase A. The experiment in a line: coprostan-3-one dehydrogenase A titer: coprostanol produced, TLC/FID. It is filed as biochemical, Eubacterium sp. CP 2. The following applies: for relative activity (enzyme activity without adding inhibitor defined as 100): 1 mM inhibitor, 30 minutes, pH 7.5, 37° C.; for relative activity in comparison with the case of no addition: 1 mM metal salt. The procedure: as §1
[…] The enzyme solution was mixed with equal amounts of activating fractions and left for 15 minutes at 5° C., then used.
(§3) Then, the quantity of coprostanol produced in the reaction solution is determined using TLC/FID iatroscan. The quantity of coprostanol in the reaction solution is determined likewise using an inactivated enzyme which has been previously heated as a control. The enzyme activity which produces 1 μmol of coprostanol per one minute is regarded as 1 unit.

Data set [6] has as its system cholesterol dehydrogenase B. The experiment in a line: cholesterol dehydrogenase B titer: 4-cholesten-3-one produced, TLC/FID. It counts as biochemical, Eubacterium sp. CP 1. The following applies: for relative activity (enzyme activity without adding inhibitor is 100): 1 mM inhibitor, 30 minutes, pH 7.5, 37° C.; for relative activity as substrate (activity of cholesterol defined as 100): substrate specificity; for relative activity in comparison to the case of no addition: 1 mM metal salt. The procedure: as §1
With 0.2 ml of 3 mM cholesterol micelle solution containing 0.33% Triton X-100 is mixed 0.3 ml of a 50 mM phosphoric acid buffer solution (pH 7.5) containing 1.0% Triton X-100 and 1 mM DTT, and 0.1 ml of a 10 mM NADP solution, to the resulted mixture is added 0.05 ml of an enzyme solution, reacted for 30 minutes at 37° C., and then added 0.1 ml of chloroform to extract sterol and to terminate the reaction.
Then, the quantity of 4-cholesten-3-one produced in the reaction solution is determined using TLC/FID iatroscan. […] The enzyme activity which produces 1 μmol of 4-cholesten-3-one per one minute is regarded as 1 unit.

Data set [7] concerns coprostan-3-one dehydrogenase B. The experiment in a line: coprostan-3-one dehydrogenase B titer: coprostanol produced, TLC/FID. It counts as biochemical, Eubacterium sp. CP 1. The following applies: for relative activity (enzyme activity without adding inhibitor is 100): 1 mM inhibitor, 30 minutes, pH 7.5, 37° C.; for relative activity in comparison to the case of no addition: 1 mM metal salt. The procedure:
as §1
With 0.2 ml of 3 mM coprostan-3-one micelle solution containing 0.33% Triton X-100 is mixed 0.3 ml of a 20 mM Tris-hydrochloric acid buffer solution (pH 7.5) containing 1.0% Triton X-100 and 1 mM DTT, and 0.1 ml of a 10 mM NADPH solution, to the resulted mixture is added 0.05 ml of an enzyme solution, reacted for 30 minutes at 37° C., and then added 0.1 ml of chloroform to extract sterol and to terminate the reaction.
as §3

For data set [8] the following is noted: in vivo; cited from earlier work.

For the molecule `CC(C)CCC[C@@H](C)[C@H]1CC[C@H]2[C@@H]3CC=C4CC(=O)CC[C@]4(C)[C@H]3CC[C@]12C` [5-cholestenon-3-one], the “relative activity as substrate (activity of 4-cholesten-3-one defined as 100)” value in data set [1] (substrate specificity) is reported as 0.

With `NC(=O)c1cccnc1` [Nicotinamide, nicotinamide], the “COP conversion (%)” value in data set [2] is given as 0%.

As for `O=S(=O)(O)c1cc[c]([Hg][Cl])cc1` [PCMB, p-chloro mercury phenylsulfonate], the entries for the “relative activity (enzyme activity without adding inhibitor defined as 100)” value in data set [3], in data set [4] and in data set [5] were 0, 47 and 41, respectively. Further, the “relative activity (enzyme activity without adding inhibitor is 100)” value in data set [6], in data set [1] and in data set [7] was 0 in each case.

In the case of `CC(C)[C@H](C)CC[C@@H](C)[C@H]1CC[C@H]2[C@@H]3CC=C4C[C@@H](O)CC[C@]4(C)[C@H]3CC[C@]12C` [campesterol], the “relative activity as substrate (activity of cholesterol is 100)” value in data set [3] amounted to 74. The “relative activity as substrate (activity of cholesterol defined as 100)” value in data set [6] is on record as 50.

Regarding `[Cl][Cu][Cl]` [copper chloride], the “relative activity in comparison with the case of no addition” value worked out at 3.2 in data set [3], 2.7 in data set [5] and 0 in data set [1]. The “relative activity in comparison to the case of no addition” value in data set [4], in data set [6] and in data set [7] was 0 in each case.

Turning to `CC(C)CCC[C@@H](C)[C@H]1CC[C@H]2[C@@H]3CC[C@@H]4C[C@@H](O)CC[C@]4(C)[C@H]3CC[C@]12C` [coprostanol], the “absorbability through the intestinal tract” value in data set [8] is “very low”.

For `NC(=O)CI` [iodine acetamide], the “relative activity (enzyme activity without adding inhibitor defined as 100)” value in data set [3] came to 82; in data set [4] it was 94; in data set [5], 82. For the same molecule, the “relative activity (enzyme activity without adding inhibitor is 100)” value in data set [1] is 99; in data set [7], 95.

Consider `O=C(O)CI` [iodine acetic acid], for which the “relative activity (enzyme activity without adding inhibitor is 100)” value in data set [6] was 98.

Turning to `O=P([O-])([O-])[O-].[Na+].[Na+].[Na+]` [phosphate ion, trisodium phosphate], the “effect on conversion reaction by cholesterol dehydrogenase B” value in data set [6] is “remarkably activated”.

`CC(=O)[C@H]1CC[C@H]2[C@@H]3CCC4=CC(=O)CC[C@]4(C)[C@H]3CC[C@]12C` [progesterone]: in data set [4], the “relative activity as substrate (activity of 4-cholesten-3-one defined as 100)” value is recorded as 41.

`CC[C@H](/C=C/[C@@H](C)[C@H]1CC[C@H]2[C@@H]3CC=C4C[C@@H](O)CC[C@]4(C)[C@H]3CC[C@]12C)C(C)C` [stigmasterol]: in data set [3], the “relative activity as substrate (activity of cholesterol is 100)” value was 30. Further, the “relative activity as substrate (activity of cholesterol defined as 100)” value in data set [6] came to 39.

For `C[C@]12CC[C@H]3[C@@H](CCC4=CC(=O)CC[C@@]43C)[C@@H]1CC[C@@H]2O` [testosterone], the “relative activity as substrate (activity of 4-cholesten-3-one defined as 100)” value in data set [4] is listed as 0.

For `CC[C@H](CC[C@@H](C)[C@H]1CC[C@H]2[C@@H]3CC=C4C[C@@H](O)CC[C@]4(C)[C@H]3CC[C@]12C)C(C)C` [β sitosterol], in data set [3], the “relative activity as substrate (activity of cholesterol is 100)” value is 38. Besides, the “relative activity as substrate (activity of cholesterol defined as 100)” value in data set [6] worked out at 67.

As for iron chloride, the figures for the “relative activity in comparison with the case of no addition” value in data set [3], in data set [5] and in data set [1] were 95, 12 and 107, respectively. In addition, the “relative activity in comparison to the case of no addition” value in data set [4] was found to be 110; in data set [6], 0; in data set [7] it was 105.

With prognerone, the “relative activity as substrate (activity of 4-cholesten-3-one defined as 100)” value in data set [4] is on record as 0.

The values above are taken from patent US6485931B2, “CHOLESTEROL DEHYDROGENASE, COPROSTAN-3-ONE DEHYDROGENASE AND 4-CHOLESTEN-3-ONE DEHYDROGENASE, COMPOSITIONS CONTAINING THE DEHYDROGENASES, AND METHOD FOR REDUCING AMOUNT OF CHOLESTEROL USING THE COMPOSITIONS” (Kyowa Hakko Kogyo Co., Ltd., priority 1996, dated 2002).
